Data as given in US8828932B2, “Bifunctional molecules for inactivating HIV and blocking HIV entry” (New York Blood Center, Inc., priority 2010, dated 2014).

Columns and labels:
[1] = tested on: HIV-1 IIIB chronically infected H9 cells / MT-2 cells; format: cell-based
Description: HIV-1-mediated cell-cell fusion was determined by a dye transfer assay (Lu H et al. J Virol Methods 107:155-161, 2003.) using Calcein AM-labeled HIV-1IIIB chronically infected H9 (H9/HIV-1 IIIB) cells as effector cells and MT-2 cells as target cells.

[2] = tested on: HIV-1 IIIB (B, X4)
Description: The inhibitory activity of the bifunctional molecule on HIV-1 IIIB infection was determined by ELISA for p24 production (Jiang S et al. J Exp Med 174:1557-1563, 1991). Briefly, MT-2 cells were infected with HIV-1IIIB at 100 TCID50 (50% tissue culture infective dose) in RPMI 1640 medium containing 10% FBS in the presence or absence of an antigen specific antiserum or IgG antibody in serial 2-fold dilutions at 37° C. overnight. The culture supernatants were then removed and fresh media were added. On day 4 post-infection, the culture supernatants were collected and mixed with equal volumes of 5% TRITON™ X-100 for the detection in the p24 protein ELISA.

[3] = tested on: HIV-1 Bal (B, R5); format: cell-based
Description: The cells were harvested and lysed on the fourth day post-infection with 50 μl of lysing reagent. The luciferase activity was analyzed using a luciferase kit (Promega) and a luminometer (Ultra 386, Tecan) according to the manufacturer's instruction. The percent inhibition of luciferase activity was calculated.

[4] = tested on: 92US657 (B, R5); format: cell-based, HIV-1
Description: (§1) The inhibitory activity of the bifunctional molecule on infection by primary HIV-1 isolates, 92US657 (B, R5), 94UG103 (A, X4R5), 93MW959 (C, R5), RU570 (G, R5) and 92TH009 (E/A, R5) was determined (Jiang S et al. Antimicrob Agents Chemother 48:4349-4359, 2004). Briefly, peripheral blood mononuclear cells (PBMCs) were isolated from the blood of healthy donors using a standard density gradient (Histopaque-1077, Sigma) centrifugation. After incubation at 37° C. for 2 hr, the nonadherent cells were collected and resuspended at 5×10^5/ml in RPMI 1640 medium containing 10% FBS, 5 μg of phytohemagglutinin (PHA)/ml, and 100 U of IL-2/ml, followed by incubation at 37° C. for 3 days. The PHA-stimulated cells were infected with the corresponding primary HIV-1 isolates at a multiplicity of infection (MOI) of 0.01 in the absence or presence of antisera at a serial 2-fold dilution. The supernatants were collected 7 days post-infection and tested for p24 antigen by ELISA as described above. The IC50 was calculated using the […]™ software as described above.

[5] = tested on: 93MW959 (C, R5); format: cell-based, HIV-1
Description: as §1

[6] = tested on: 94UG103 (A, X4R5); format: cell-based, HIV-1
Description: as §1

[7] = tested on: RU570 (G, R5); format: cell-based, HIV-1
Description: as §1

[8] = tested on: 92TH009 (E/A, R5); experiment: Primary HIV-1 isolate infection of PBMCs, p24 ELISA; format: cell-based
Description: as §1

[9] = tested on: HIV-1 IIIB (B, X4); experiment: Inactivation of cell-free virus, PEG 6000 precipitation, MT-2 cells, p24; format: cell-based; details: FIG. 17, MT-2 cells
Description: (§2) Briefly, HIV-1 isolate (500 TCID50/ml) was added to 100 μl of the samples with different concentration and incubate on 4° C. for 1 hour. Then, PEG 6000 was added to the final concentration of 3% and centrifuge on a microfuge at 15,000 rpm for 30 min. The supernatants were removed, and the pellet was washed with PBS and resuspended to 100 μl. MT-2 or TZM-bl cells (1×10^5/ml) were added at 100 μl/well, and cultured at 37° C. for 3 days. p24 production in MT-2 or luciferase activity was determined according to kit manufacturer' instruction.

[10] = tested on: HIV-1 Bal (B, R5); experiment: Inactivation of cell-free virus, PEG 6000 precipitation, TZM-bl cells, luciferase; format: cell-based; details: FIG. 18, luciferase
Description: as §2

Substance enfuvirtide has an IC50 [1] of 0.0201 µM, an IC90 [1] of 0.0417 µM and an IC50 [2] of 0.0173 µM. The IC90 [2] was 0.117 µM, the IC50 [3] was 0.0433 µM and the IC90 [3] was over 0.25 µM. For the same substance, the IC50 [4] was 0.0561 µM, the IC90 [4] was 0.224 µM and the IC50 [5] was 0.0047 µM. The IC90 [5] was 0.0188 µM, the IC50 [6] was 0.00667 µM and the IC90 [6] was 0.0294 µM. For the same substance, the IC50 [7] was 0.0441 µM, the IC90 [7] was 0.11 µM and the IC50 ([8]; read-out: IC50, HIV-1 replication 92TH009 (E/A, R5)) was 0.00143 µM. The IC90 ([8]; read-out: IC90, HIV-1 replication 92TH009 (E/A, R5)) was 0.00799 µM, the “virus inactivation activity, HIV-1 IIIB” value [9] was “no significant effects on virus” and the “virus inactivation activity, HIV-1 Bal” value [10] was “no significant effects on virus”.
